# Test results published in PubChem BioAssay AID328 (DTP/NCI, 2004).
# “And” between values parts separate entries of the source, which are not always exact repeats. Identical values can stand only once. Inconclusive results and toxic doses are left out.
# System: BDF1 mice, P388 leukemia ip, median survival T/C
# Experiment: NCI In Vivo Anticancer Drug Screen. Data for tumor model P388 Leukemia (intraperitoneal) in B6D2F1 (BDF1) mice
# Conditions: endpoint: median survival time, higher = longer survival
# How it was run: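 Survival ratio, drug arm over vehicle arm, in mice with a transplanted tumour.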
# [1] = dose: 6.25 mg/kg/injection, schedule: Q01DX009 (ip), vehicle: Klucel (hydroxypropylcellulose) (HPC)
# [2] = dose: 12.5 mg/kg/injection, schedule: Q01DX009 (ip), vehicle: Klucel (hydroxypropylcellulose) (HPC)
# [3] = dose: 100.0 mg/kg/injection, schedule: Q01DX001 (ip), vehicle: saline with Tween-80
# [4] = dose: 200.0 mg/kg/injection, schedule: Q01DX001 (ip), vehicle: saline with Tween-80
# [5] = dose: 400.0 mg/kg/injection, schedule: Q01DX001 (ip), vehicle: saline with Tween-80
# [6] = dose: 25.0 mg/kg/injection, schedule: Q01DX009 (ip), vehicle: saline with Tween-80
# [7] = dose: 50.0 mg/kg/injection, schedule: Q01DX009 (ip), vehicle: saline with Tween-80
# [8] = dose: 100.0 mg/kg/injection, schedule: Q01DX009 (ip), vehicle: saline with Tween-80
# [9] = dose: 100.0 mg/kg/injection, schedule: Q04DX003 (ip), vehicle: Klucel (hydroxypropylcellulose) (HPC)
# [10] = dose: 200.0 mg/kg/injection, schedule: Q04DX003 (ip), vehicle: Klucel (hydroxypropylcellulose) (HPC)
# [11] = dose: 400.0 mg/kg/injection, schedule: Q04DX003 (ip), vehicle: Klucel (hydroxypropylcellulose) (HPC)
# [12] = dose: 50.0 mg/kg/injection, schedule: Q01DX009 (ip), vehicle: saline
# [13] = dose: 200.0 mg/kg/injection, schedule: Q01DX009 (ip), vehicle: saline with Tween-80
smiles,measurement,setting,value
N#Cc1cccc(C[P+](c2ccccc2)(c2ccccc2)c2ccccc2)c1,T/C,[1],86 % of control
same,T/C,[2],95 % of control
same,T/C,"dose: 17.0 mg/kg/injection, schedule: Q04DX003 (ip), vehicle: Klucel (hydroxypropylcellulose) (HPC)",95 % of control and 104 % of control
same,T/C,"dose: 25.0 mg/kg/injection, schedule: Q01DX009 (ip), vehicle: Klucel (hydroxypropylcellulose) (HPC)",104 % of control
same,T/C,"dose: 35.0 mg/kg/injection, schedule: Q01DX009 (ip), vehicle: Klucel (hydroxypropylcellulose) (HPC)",86 % of control
same,T/C,"dose: 40.0 mg/kg/injection, schedule: Q04DX003 (ip), vehicle: Klucel (hydroxypropylcellulose) (HPC)",95 % of control and 100 % of control
same,T/C,"dose: 52.5 mg/kg/injection, schedule: Q04DX003 (ip), vehicle: Klucel (hydroxypropylcellulose) (HPC)",115 % of control
c1cc2c(cc1CNC1=NCCO1)OCO2,T/C,[3],100 % of control
same,T/C,[4],95 % of control
same,T/C,[5],118 % of control
CNCCCC12CC(c3ccccc31)c1ccccc12,T/C,[6],103 % of control
same,T/C,[7],101 % of control
same,T/C,[8],112 % of control
Cc1c2ccccc2c(CSC(=N)N)c2ccccc12,T/C,"dose: 9.38 mg/kg/injection, schedule: Q04DX003 (ip), vehicle: saline with Tween-80",154 % of control
same,T/C,"dose: 12.5 mg/kg/injection, schedule: Q04DX003 (ip), vehicle: saline",160 % of control
same,T/C,"dose: 25.0 mg/kg/injection, schedule: Q04DX003 (ip), vehicle: saline",180 % of control
NC(=O)C1CCCC12NC(=O)NC2=O (centres undefined),T/C,[9],109 % of control
same,T/C,[10],100 % of control
same,T/C,[11],95 % of control
Oc1ccccc1C=NCCN1CC1.Oc1ccccc1C=NCCN1CC1.[Ni+2],T/C,[1],101 % of control
same,T/C,[2],101 % of control
same,T/C,"dose: 12.5 mg/kg/injection, schedule: Q04DX003 (ip), vehicle: Klucel (hydroxypropylcellulose) (HPC)",98 % of control
same,T/C,"dose: 25.0 mg/kg/injection, schedule: Q04DX003 (ip), vehicle: saline sonified",115 % of control
same,T/C,"dose: 50.0 mg/kg/injection, schedule: Q04DX003 (ip), vehicle: Klucel (hydroxypropylcellulose) (HPC)",122 % of control
CCCCCCCCCCCCOc1ccc(C=O)cc1OC,T/C,"dose: 100.0 mg/kg/injection, schedule: Q01DX001 (ip), vehicle: Klucel (hydroxypropylcellulose) (HPC)",100 % of control
same,T/C,"dose: 200.0 mg/kg/injection, schedule: Q01DX001 (ip), vehicle: Klucel (hydroxypropylcellulose) (HPC)",90 % of control
same,T/C,"dose: 400.0 mg/kg/injection, schedule: Q01DX001 (ip), vehicle: Klucel (hydroxypropylcellulose) (HPC)",100 % of control
c1ccc2c(c1)C1CC(N3CCCCC3)C2c2ccccc21 (centres undefined),T/C,"dose: 100.0 mg/kg/injection, schedule: Q01DX009 (ip), vehicle: Klucel (hydroxypropylcellulose) (HPC)",90 % of control
same,T/C,[9],95 % of control
same,T/C,"dose: 200.0 mg/kg/injection, schedule: Q01DX009 (ip), vehicle: Klucel (hydroxypropylcellulose) (HPC)",86 % of control
same,T/C,[10],100 % of control
same,T/C,"dose: 400.0 mg/kg/injection, schedule: Q01DX009 (ip), vehicle: Klucel (hydroxypropylcellulose) (HPC)",90 % of control
same,T/C,[11],91 % of control
Cc1cccc(C(=O)CC(O)(C(F)(F)F)C(F)(F)F)c1,T/C,[3],104 % of control
same,T/C,[4],100 % of control
same,T/C,[5],109 % of control
CCCCC(=O)OCC1OC(n2cnc3c(=S)nc[nH]c32)C(OC(=O)CCCC)C1OC(=O)CCCC (centres undefined),T/C,"dose: 12.5 mg/kg/injection, schedule: Q01DX009 (sc), vehicle: olive oil, sesame oil, peanut oil",100 % of control
same,T/C,"dose: 25.0 mg/kg/injection, schedule: Q01DX009 (sc), vehicle: olive oil, sesame oil, peanut oil",91 % of control
same,T/C,"dose: 50.0 mg/kg/injection, schedule: Q01DX009 (sc), vehicle: olive oil, sesame oil, peanut oil",100 % of control
same,T/C,"dose: 100.0 mg/kg/injection, schedule: Q01DX009 (sc), vehicle: olive oil, sesame oil, peanut oil",96 % of control
same,T/C,"dose: 100.0 mg/kg/injection, schedule: Q04DX003 (sc), vehicle: olive oil, sesame oil, peanut oil",108 % of control
same,T/C,"dose: 200.0 mg/kg/injection, schedule: Q04DX003 (sc), vehicle: olive oil, sesame oil, peanut oil",108 % of control
same,T/C,"dose: 400.0 mg/kg/injection, schedule: Q04DX003 (sc), vehicle: olive oil, sesame oil, peanut oil",116 % of control
C[N-]N(C)C(=O)[S-].C[N-]N(C)C(=O)[S-].C[N-]N(C)C(=O)[S-].[Co],T/C,"dose: 100.0 mg/kg/injection, schedule: Q04DX003 (ip), vehicle: saline with Tween-80",105 % of control
CNc1nc(N)c(N=O)c(Nc2ccc(Br)cc2)n1,T/C,"dose: 62.5 mg/kg/injection, schedule: Q01DX010 (ip), vehicle: carboxymethylcellulose (CMC)",105 % of control
same,T/C,"dose: 125.0 mg/kg/injection, schedule: Q01DX010 (ip), vehicle: carboxymethylcellulose (CMC)",110 % of control
same,T/C,"dose: 250.0 mg/kg/injection, schedule: Q01DX010 (ip), vehicle: carboxymethylcellulose (CMC)",100 % of control
same,T/C,"dose: 500.0 mg/kg/injection, schedule: Q01DX010 (ip), vehicle: carboxymethylcellulose (CMC)",100 % of control
CC([CH2][Hg][Cl])c1ccccc1 (centres undefined),T/C,"dose: 3.13 mg/kg/injection, schedule: Q01DX009 (ip), vehicle: saline with Tween-80",122 % of control
same,T/C,"dose: 4.16 mg/kg/injection, schedule: Q01DX009 (ip), vehicle: saline with Tween-80",118 % of control
same,T/C,"dose: 6.25 mg/kg/injection, schedule: Q01DX009 (ip), vehicle: saline with Tween-80",113 % of control
same,T/C,"dose: 9.38 mg/kg/injection, schedule: Q01DX009 (ip), vehicle: saline with Tween-80",109 % of control
same,T/C,"dose: 12.5 mg/kg/injection, schedule: Q01DX009 (ip), vehicle: saline with Tween-80",109 % of control
O=C1SC2(CCCCC2)SC1=O,T/C,[6],95 % of control
same,T/C,[7],95 % of control
same,T/C,[8],104 % of control
Br/C(=N\Nc1nn[nH]n1)c1ccncc1,T/C,"dose: 25.0 mg/kg/injection, schedule: Q01DX009 (ip), vehicle: saline",90 % of control
same,T/C,[12],100 % of control and 104 % of control
same,T/C,"dose: 100.0 mg/kg/injection, schedule: Q01DX009 (ip), vehicle: saline",90 % of control and 100 % of control
same,T/C,"dose: 200.0 mg/kg/injection, schedule: Q01DX009 (ip), vehicle: saline",95 % of control and 113 % of control
COc1cc(NCCCCC(C)N)c2nccc(C)c2c1 (centres undefined),T/C,[12],105 % of control
O=C(O)/C(=C\c1ccccc1Br)c1ccc(C(F)(F)F)cc1[N+](=O)[O-],T/C,"dose: 75.0 mg/kg/injection, schedule: Q01DX001 (ip), vehicle: saline with Tween-80",100 % of control
same,T/C,"dose: 150.0 mg/kg/injection, schedule: Q01DX001 (ip), vehicle: saline with Tween-80",95 % of control
same,T/C,"dose: 300.0 mg/kg/injection, schedule: Q01DX001 (ip), vehicle: saline with Tween-80",100 % of control
CCCC(C(=O)OCCN(CC)CC)(c1ccccc1)c1ccccc1,T/C,"dose: 54.0 mg/kg/injection, schedule: Q01DX001 (ip), vehicle: saline",105 % of control
same,T/C,"dose: 90.0 mg/kg/injection, schedule: Q01DX001 (ip), vehicle: saline",104 % of control
same,T/C,"dose: 150.0 mg/kg/injection, schedule: Q01DX001 (ip), vehicle: saline",105 % of control
CS(=O)CC(O)(c1cccs1)C1CC1 (centres undefined),T/C,[7],103 % of control
same,T/C,[8],117 % of control
same,T/C,[13],98 % of control
NC(Cc1ccc(O)cc1)C(=O)N/N=C/c1ccc(N(CCCl)CCCl)cc1 (centres undefined),T/C,"dose: 18.0 mg/kg/injection, schedule: Q04DX003 (ip), vehicle: Klucel (hydroxypropylcellulose) (HPC)",108 % of control
same,T/C,"dose: 26.0 mg/kg/injection, schedule: Q04DX003 (ip), vehicle: Klucel (hydroxypropylcellulose) (HPC)",116 % of control
same,T/C,"dose: 60.0 mg/kg/injection, schedule: Q04DX003 (ip), vehicle: Klucel (hydroxypropylcellulose) (HPC)",165 % of control
same,T/C,"dose: 90.0 mg/kg/injection, schedule: Q04DX003 (ip), vehicle: Klucel (hydroxypropylcellulose) (HPC)",169 % of control
same,T/C,[9],165 % of control
same,T/C,"dose: 133.0 mg/kg/injection, schedule: Q04DX003 (ip), vehicle: Klucel (hydroxypropylcellulose) (HPC)",170 % of control
same,T/C,[10],192 % of control and 204 % of control
same,T/C,"dose: 300.0 mg/kg/injection, schedule: Q04DX003 (ip), vehicle: Klucel (hydroxypropylcellulose) (HPC)",166 % of control
O=C1OC(COCC#Cc2ccccc2)CN1c1ccccc1 (centres undefined),T/C,[8],104 % of control
same,T/C,"dose: 100.0 mg/kg/injection, schedule: Q04DX003 (ip), vehicle: saline",92 % of control
same,T/C,[13],100 % of control
same,T/C,"dose: 200.0 mg/kg/injection, schedule: Q04DX003 (ip), vehicle: saline",107 % of control
same,T/C,"dose: 400.0 mg/kg/injection, schedule: Q01DX009 (ip), vehicle: saline with Tween-80",100 % of control
same,T/C,"dose: 400.0 mg/kg/injection, schedule: Q04DX003 (ip), vehicle: saline",92 % of control
